pIC50: −log10 of the molar value. Calls of active or inactive are those of the source. The rule behind the calls is not given here.
Assays:
[1] = target: T1, Eukaryotic elongation factor 2 kinase (Homo sapiens) (UniProt O00418); experiment: Inhibition of GST-tagged EEF2K (unknown origin) at 20 uM using biotinylated EEF2 peptide substrate by HTRF assay relative to control
T1 sequence (whole entry): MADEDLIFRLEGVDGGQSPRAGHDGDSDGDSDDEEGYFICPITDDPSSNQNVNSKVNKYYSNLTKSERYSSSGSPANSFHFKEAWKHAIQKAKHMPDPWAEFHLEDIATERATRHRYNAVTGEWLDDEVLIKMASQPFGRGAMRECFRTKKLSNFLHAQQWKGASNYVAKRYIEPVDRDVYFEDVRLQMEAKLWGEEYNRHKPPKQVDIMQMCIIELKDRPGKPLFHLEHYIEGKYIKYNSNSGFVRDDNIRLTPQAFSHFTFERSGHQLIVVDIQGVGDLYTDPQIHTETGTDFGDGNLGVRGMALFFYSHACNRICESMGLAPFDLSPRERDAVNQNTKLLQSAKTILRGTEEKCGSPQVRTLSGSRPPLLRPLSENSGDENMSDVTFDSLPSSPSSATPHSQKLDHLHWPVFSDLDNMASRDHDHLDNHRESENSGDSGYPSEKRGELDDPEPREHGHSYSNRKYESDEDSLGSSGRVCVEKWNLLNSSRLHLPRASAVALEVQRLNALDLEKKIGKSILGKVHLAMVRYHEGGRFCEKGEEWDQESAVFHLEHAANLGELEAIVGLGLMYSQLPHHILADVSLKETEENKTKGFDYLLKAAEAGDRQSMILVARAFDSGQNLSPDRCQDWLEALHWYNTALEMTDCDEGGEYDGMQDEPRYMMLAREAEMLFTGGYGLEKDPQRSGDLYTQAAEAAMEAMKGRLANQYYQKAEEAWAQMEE

[2] = target: Bone morphogenetic protein receptor type-2 (Homo sapiens) (UniProt Q13873); experiment: Inhibition of wild-type human partial length BMPR2 (R179 to Q526 residues) expressed in mammalian expression system assessed as residual activity at 1 uM by Kinomescan method relative to control
[3] = target: Mitogen-activated protein kinase 1 (Homo sapiens) (UniProt P28482); experiment: Inhibition of wild-type human full length ERK2 (M1 to S360 residues) expressed in bacterial expression system assessed as residual activity at 1 uM by Kinomescan method relative to control
[4] = target: Serine/threonine-protein kinase ULK1 (Homo sapiens) (UniProt O75385); experiment: Inhibition of wild-type human partial length ULK1 (M1 to T309 residues) expressed in mammalian expression system assessed as residual activity at 1 uM by Kinomescan method relative to control
[5] = target: Ephrin type-A receptor 2 (Homo sapiens) (UniProt P29317); experiment: Inhibition of wild-type human partial length EPHA2 (T593 to V891 residues) expressed in bacterial expression system assessed as residual activity at 1 uM by Kinomescan method relative to control
BT-483 [6] = experiment: Induction of apoptosis in human BT-483 cells assessed as early apoptotic cells at 10 uM by Annexin V-FITC/propidium iodide staining based flow cytometry (reference value: 2.01%); assay type: functional
BT-483 [7] = experiment: Induction of autophagy in human BT-483 cells assessed as degradation of SQSTM1 protein at 5 to 10 uM by Western blot analysis; assay type: functional, cell-based
[8] = target: SRSF protein kinase 3 (Homo sapiens) (UniProt Q9UPE1); experiment: Inhibition of wild-type human partial length SRPK3 (P41 to P567 residues) expressed in bacterial expression system assessed as residual activity at 1 uM by Kinomescan method relative to control
[9] = target: RAC-beta serine/threonine-protein kinase (Homo sapiens) (UniProt P31751); experiment: Inhibition of wild-type human partial length AKT2 expressed in bacterial expression system assessed as residual activity at 1 uM by Kinomescan method relative to control
[10] = target: Mitogen-activated protein kinase kinase kinase 7 (Homo sapiens) (UniProt O43318); experiment: Inhibition of wild-type human partial length TAK1 (M1 to Q303 residues) expressed in mammalian expression system assessed as residual activity at 1 uM by Kinomescan method relative to control
[11] = target: Ribosomal protein S6 kinase alpha-1 (Homo sapiens) (UniProt Q15418); experiment: Inhibition of wild-type human partial length N-terminal RSK1 Kinase domain 1 (M1 to E388 residues) expressed in bacterial expression system assessed as residual activity at 1 uM by Kinomescan method relative to control
Chain of Ribosomal protein S6 kinase alpha-1 (Homo sapiens) (Q15418 whole entry, the tested form may be a part): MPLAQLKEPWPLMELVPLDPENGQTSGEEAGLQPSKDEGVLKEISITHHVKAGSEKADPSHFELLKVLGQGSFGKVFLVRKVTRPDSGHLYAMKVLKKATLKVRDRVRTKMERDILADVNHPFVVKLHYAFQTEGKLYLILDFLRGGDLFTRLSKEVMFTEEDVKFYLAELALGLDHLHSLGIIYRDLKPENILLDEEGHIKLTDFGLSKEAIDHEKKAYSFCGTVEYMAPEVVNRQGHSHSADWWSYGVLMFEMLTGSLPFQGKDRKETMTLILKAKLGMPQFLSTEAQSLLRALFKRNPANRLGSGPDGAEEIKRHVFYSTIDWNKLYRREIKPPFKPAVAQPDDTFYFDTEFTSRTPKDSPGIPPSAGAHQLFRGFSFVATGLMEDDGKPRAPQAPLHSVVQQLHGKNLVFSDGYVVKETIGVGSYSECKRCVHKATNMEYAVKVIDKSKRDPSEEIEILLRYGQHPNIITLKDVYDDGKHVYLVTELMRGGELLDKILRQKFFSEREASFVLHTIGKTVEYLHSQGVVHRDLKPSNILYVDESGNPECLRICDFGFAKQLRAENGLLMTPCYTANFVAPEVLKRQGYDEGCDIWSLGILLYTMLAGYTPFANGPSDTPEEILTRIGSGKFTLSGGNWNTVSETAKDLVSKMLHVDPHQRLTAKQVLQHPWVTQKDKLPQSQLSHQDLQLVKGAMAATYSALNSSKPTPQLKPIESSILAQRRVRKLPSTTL

[12] = target: Eukaryotic elongation factor 2 kinase (Homo sapiens, UniProt O00418); experiment: Inhibition of GST-tagged EEF2K (unknown origin) using biotinylated EEF2 peptide substrate by HTRF assay
[13] = target: Casein kinase I isoform gamma-2 (Homo sapiens) (UniProt P78368); experiment: Inhibition of wild-type human full length CSNK1G2 (M1 to K415 residues) expressed in bacterial expression system assessed as residual activity at 1 uM by Kinomescan method relative to control
[14] = target: Serine/threonine-protein kinase PAK 1 (Homo sapiens) (UniProt Q13153); experiment: Inhibition of wild-type human partial length PAK1 (S149 to H545 residues) expressed in bacterial expression system assessed as residual activity at 1 uM by Kinomescan method relative to control
Chain of Serine/threonine-protein kinase PAK 1 (Homo sapiens) (Q13153 whole entry, the tested form may be a part): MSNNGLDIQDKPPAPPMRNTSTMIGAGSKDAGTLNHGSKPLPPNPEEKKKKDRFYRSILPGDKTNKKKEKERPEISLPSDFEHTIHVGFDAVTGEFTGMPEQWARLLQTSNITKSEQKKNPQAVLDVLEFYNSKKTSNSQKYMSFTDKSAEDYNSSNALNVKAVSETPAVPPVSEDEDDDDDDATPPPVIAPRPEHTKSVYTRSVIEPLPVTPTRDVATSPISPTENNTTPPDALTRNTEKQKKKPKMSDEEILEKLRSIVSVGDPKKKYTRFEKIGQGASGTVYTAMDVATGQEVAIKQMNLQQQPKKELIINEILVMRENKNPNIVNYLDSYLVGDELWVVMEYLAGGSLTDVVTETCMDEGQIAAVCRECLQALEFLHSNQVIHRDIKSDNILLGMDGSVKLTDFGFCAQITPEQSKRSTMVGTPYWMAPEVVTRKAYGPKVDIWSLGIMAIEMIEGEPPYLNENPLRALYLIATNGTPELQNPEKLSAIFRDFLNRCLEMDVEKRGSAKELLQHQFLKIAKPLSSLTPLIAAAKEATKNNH

[15] = target: Focal adhesion kinase 1 (Homo sapiens) (UniProt Q05397); experiment: Inhibition of wild-type human partial length FAK (D402 to R696 residues) expressed in bacterial expression system assessed as residual activity at 1 uM by Kinomescan method relative to control
Chain of Focal adhesion kinase 1 (Homo sapiens) (Q05397 2-1052 limits assumed): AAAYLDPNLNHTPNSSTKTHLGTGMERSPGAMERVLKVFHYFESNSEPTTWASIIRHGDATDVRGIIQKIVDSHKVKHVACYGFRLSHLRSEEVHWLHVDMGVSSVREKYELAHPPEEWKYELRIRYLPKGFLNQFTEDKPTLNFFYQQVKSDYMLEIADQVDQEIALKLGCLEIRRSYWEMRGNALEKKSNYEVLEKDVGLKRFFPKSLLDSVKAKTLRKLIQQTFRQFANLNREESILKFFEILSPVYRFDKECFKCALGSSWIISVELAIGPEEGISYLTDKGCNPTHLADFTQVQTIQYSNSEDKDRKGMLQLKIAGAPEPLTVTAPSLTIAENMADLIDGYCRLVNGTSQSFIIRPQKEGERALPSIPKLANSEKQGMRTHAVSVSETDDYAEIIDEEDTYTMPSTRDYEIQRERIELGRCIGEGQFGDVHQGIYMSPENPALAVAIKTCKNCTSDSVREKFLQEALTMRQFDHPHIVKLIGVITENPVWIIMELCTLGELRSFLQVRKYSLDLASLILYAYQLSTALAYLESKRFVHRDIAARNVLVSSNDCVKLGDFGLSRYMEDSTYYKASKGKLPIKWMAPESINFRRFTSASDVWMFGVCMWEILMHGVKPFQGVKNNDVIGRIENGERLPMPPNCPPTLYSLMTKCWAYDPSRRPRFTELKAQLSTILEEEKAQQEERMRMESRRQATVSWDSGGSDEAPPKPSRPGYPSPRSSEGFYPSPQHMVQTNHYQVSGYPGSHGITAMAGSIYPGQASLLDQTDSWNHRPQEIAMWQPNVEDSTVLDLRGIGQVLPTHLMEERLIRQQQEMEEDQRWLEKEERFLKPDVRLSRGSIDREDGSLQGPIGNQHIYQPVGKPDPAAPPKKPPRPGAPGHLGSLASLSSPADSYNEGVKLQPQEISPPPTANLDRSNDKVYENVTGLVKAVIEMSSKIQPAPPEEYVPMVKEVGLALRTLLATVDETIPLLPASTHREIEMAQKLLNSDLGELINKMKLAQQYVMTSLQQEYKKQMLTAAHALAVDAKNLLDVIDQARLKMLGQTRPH

[16] = target: Insulin-like growth factor 1 receptor (Homo sapiens) (UniProt P08069); experiment: Inhibition of wild-type human partial length IGF1R (L972 to D1294 residues) expressed in bacterial expression system assessed as residual activity at 1 uM by Kinomescan method relative to control
Chain of Insulin-like growth factor 1 receptor (Homo sapiens) (P08069 31-736 limits assumed): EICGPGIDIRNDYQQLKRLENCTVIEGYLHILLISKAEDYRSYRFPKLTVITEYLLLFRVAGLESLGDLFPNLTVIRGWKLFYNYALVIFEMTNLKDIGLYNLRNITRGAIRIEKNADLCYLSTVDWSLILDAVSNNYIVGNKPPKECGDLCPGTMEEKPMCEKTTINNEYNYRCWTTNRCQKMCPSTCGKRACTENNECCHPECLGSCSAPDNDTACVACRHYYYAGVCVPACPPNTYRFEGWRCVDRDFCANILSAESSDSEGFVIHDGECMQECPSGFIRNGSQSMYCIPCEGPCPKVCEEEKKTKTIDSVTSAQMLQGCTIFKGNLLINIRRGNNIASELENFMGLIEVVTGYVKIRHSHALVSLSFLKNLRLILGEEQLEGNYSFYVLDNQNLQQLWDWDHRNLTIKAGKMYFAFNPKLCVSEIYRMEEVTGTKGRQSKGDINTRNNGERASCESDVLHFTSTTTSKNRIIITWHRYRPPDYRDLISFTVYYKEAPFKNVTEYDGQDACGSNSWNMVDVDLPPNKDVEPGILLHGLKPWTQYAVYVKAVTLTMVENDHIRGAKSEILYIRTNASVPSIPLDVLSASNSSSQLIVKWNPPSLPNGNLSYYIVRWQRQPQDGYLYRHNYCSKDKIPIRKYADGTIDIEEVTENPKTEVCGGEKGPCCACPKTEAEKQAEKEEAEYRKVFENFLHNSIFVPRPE
Chain of Insulin-like growth factor 1 receptor (Homo sapiens) (P08069 741-1367 limits assumed): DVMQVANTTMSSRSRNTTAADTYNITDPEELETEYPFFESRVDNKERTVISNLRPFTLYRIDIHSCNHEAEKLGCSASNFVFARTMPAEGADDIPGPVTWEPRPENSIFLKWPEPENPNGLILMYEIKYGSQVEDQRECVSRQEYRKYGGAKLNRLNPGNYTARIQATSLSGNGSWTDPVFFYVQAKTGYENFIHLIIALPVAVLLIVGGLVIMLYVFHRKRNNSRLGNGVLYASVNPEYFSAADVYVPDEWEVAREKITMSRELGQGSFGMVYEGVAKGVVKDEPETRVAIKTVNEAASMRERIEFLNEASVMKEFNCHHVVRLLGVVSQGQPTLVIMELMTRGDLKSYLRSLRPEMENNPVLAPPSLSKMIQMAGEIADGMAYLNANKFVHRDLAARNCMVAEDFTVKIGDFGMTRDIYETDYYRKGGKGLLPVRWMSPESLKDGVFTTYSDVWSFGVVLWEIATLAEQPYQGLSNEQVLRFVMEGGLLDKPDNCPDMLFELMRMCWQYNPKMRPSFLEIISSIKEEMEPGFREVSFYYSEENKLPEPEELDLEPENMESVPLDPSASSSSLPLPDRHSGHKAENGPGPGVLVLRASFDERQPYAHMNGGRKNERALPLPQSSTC

[17] = target: Non-receptor tyrosine-protein kinase TYK2 (Homo sapiens) (UniProt P29597); experiment: Inhibition of wild-type human partial length TYK2 JH1 catalytic domain (V877 to C1187 residues) expressed in mammalian expression system assessed as residual activity at 1 uM by Kinomescan method relative to control
Chain of Non-receptor tyrosine-protein kinase TYK2 (Homo sapiens) (P29597 whole entry, the tested form may be a part, canonical isoform): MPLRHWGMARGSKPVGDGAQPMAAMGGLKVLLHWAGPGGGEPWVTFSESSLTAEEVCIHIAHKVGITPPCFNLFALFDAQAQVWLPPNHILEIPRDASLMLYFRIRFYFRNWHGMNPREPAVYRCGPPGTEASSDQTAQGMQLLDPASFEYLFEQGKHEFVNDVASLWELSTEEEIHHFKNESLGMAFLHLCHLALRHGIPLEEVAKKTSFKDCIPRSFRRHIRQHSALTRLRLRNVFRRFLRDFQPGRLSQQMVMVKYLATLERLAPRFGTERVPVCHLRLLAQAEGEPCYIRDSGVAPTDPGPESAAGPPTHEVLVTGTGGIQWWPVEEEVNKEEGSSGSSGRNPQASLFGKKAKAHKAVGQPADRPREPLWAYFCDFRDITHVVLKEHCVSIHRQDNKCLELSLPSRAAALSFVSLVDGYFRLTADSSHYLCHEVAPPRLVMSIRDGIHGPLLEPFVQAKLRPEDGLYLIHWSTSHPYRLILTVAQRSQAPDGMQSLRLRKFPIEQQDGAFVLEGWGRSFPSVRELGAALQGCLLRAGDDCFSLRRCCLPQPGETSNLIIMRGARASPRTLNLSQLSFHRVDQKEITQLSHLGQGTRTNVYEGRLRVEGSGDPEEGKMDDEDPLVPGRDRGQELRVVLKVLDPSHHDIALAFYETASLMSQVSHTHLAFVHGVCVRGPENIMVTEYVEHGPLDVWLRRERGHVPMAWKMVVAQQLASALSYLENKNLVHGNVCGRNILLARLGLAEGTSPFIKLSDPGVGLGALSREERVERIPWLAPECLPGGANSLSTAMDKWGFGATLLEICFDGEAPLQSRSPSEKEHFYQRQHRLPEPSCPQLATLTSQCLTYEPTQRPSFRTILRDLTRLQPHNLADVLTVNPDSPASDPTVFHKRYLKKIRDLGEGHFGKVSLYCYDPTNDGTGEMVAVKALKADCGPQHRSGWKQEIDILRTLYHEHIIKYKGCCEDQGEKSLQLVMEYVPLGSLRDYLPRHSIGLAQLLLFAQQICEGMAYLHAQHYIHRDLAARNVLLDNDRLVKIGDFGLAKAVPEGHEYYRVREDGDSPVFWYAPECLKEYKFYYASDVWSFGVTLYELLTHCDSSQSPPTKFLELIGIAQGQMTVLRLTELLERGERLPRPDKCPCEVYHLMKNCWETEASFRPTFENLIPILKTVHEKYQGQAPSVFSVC

[18] = target: Phosphatidylinositol 4,5-bisphosphate 3-kinase catalytic subunit gamma isoform (Homo sapiens) (UniProt P48736); experiment: Inhibition of wild-type human partial length PIK3CG (S144 to A1102 residues) expressed in mammalian expression system assessed as residual activity at 1 uM by Kinomescan method relative to control
[19] = target: Serine/threonine-protein kinase pim-2 (Homo sapiens) (UniProt Q9P1W9); experiment: Inhibition of wild-type human partial length PIM2 (M1 to E291 residues) expressed in bacterial expression system assessed as residual activity at 1 uM by Kinomescan method relative to control
BT-483 [20] = experiment: Effect on FADD protein expression in human BT-483 cells at 5 to 10 uM by Western blot analysis; assay type: functional, cell-based
[21] = target: Mitogen-activated protein kinase 11 (Homo sapiens) (UniProt Q15759); experiment: Inhibition of wild-type human full length p38-beta (M1 to Q364 residues) expressed in bacterial expression system assessed as residual activity at 1 uM by Kinomescan method relative to control

CCNc1cc(-c2ccc(NC(=O)Nc3cccc(Cl)c3)cc2C(F)(F)F)ccn1
inhibition [1]: 82.7%
Activity [2]: 94%
Activity [3]: 80%
Activity [4]: 62%
Activity [5]: 95%
Activity (BT-483 [6]): 8.72%
Activity (BT-483 [7]): Active
Activity [8]: 98%
Activity [9]: 80%
Activity [10]: 76%
Activity [11]: 64%
pIC50 [12]: 6.12
Activity [13]: 90%
Activity [14]: 70%
Activity [15]: 76%
Activity [16]: 78%
Activity [17]: 65%
Activity [18]: 74%
Activity [19]: 88%
Activity (BT-483 [20]): inactive
Activity [21]: 60%

Reference: ChEMBL document CHEMBL4251622, “Design, synthesis, and biological evaluation of polo-like kinase 1/eukaryotic elongation factor 2 kinase (PLK1/EEF2K) dual inhibitors for regulating breast cancer cells apoptosis and autophagy” (Eur J Med Chem, 2018)
